± gives the expanded uncertainty stated by the source.
Experiment: refractive index (Na D-line) (dimensionless)
Conditions: 303.15 K; 101.33 kPa; Liquid; Standard Abbe refractometry

| SMILES | refractive index |
| --- | --- |
| CC(C)C(=O)O [2-methylpropanoic acid] | 1.3913 ± 0.018 |
| CCCCCCC [heptane] | 1.3844 ± 0.018 |
| O=S1(=O)CCCC1 [sulfolane] | 1.4815 ± 0.018 |
